Test results as given in PubChem BioAssay (NCI).
“And” between values parts separate entries of the source, which are not always exact repeats. Identical values can stand only once.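 Values below derive from 48-hour exposures of cells grown in 96-well plates, with endpoints linearly interpolated between the two concentrations bracketing the appropriate inhibition level. GI50 marks 50% less growth. TGI: concentration producing complete growth inhibition.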 Where a SMILES comes first, the peptide text is derived from it. [ ]: non-standard residue; d: D form. The star is where a group is joined. ξ: configuration not given here. ξF = NC(Cc1ccccc1)C(=O)O; Cbz = O=C(OCc1ccccc1)*; Aib = CC(C)(N)C(=O)O

How the values were obtained:
Experiment in all cases: NCI-60 cell line screen, 48 h
BT-549 breast = tested on: BT-549 breast
OVCAR-5 ovarian = tested on: OVCAR-5 ovarian
RPMI-8226 leukemia = tested on: RPMI-8226 leukemia
UACC-62 melanoma = tested on: UACC-62 melanoma
MOLT-4 leukemia = tested on: MOLT-4 leukemia
KM12 colon = tested on: KM12 colon
SF-268 CNS = tested on: SF-268 CNS
HOP-92 NSCLC = tested on: HOP-92 NSCLC
MDA-N = tested on: MDA-N
TK-10 renal = tested on: TK-10 renal

Row | SMILES | TGI (BT-549 breast) [µM] | TGI (OVCAR-5 ovarian) | GI50 (RPMI-8226 leukemia) [µM] | TGI (RPMI-8226 leukemia) | GI50 (UACC-62 melanoma) [µM] | TGI (UACC-62 melanoma) | GI50 (MOLT-4 leukemia) [µM] | TGI (MOLT-4 leukemia) | GI50 (KM12 colon) [µM] | TGI (KM12 colon) | GI50 (SF-268 CNS) [µM] | TGI (SF-268 CNS) | GI50 (HOP-92 NSCLC) [µM] | TGI (HOP-92 NSCLC) | TGI (MDA-N) [µM] | TGI (TK-10 renal) [µM]
1 | CCN(CC)CC[n+]1ccc2c(C)c3[nH]c4ccc(O)cc4c3c(C)c2c1 | 34.3 | 72.6 µM and 73.8 µM | 3.41 | 43.4 µM and 35.6 µM | 5.41 | 23.1 µM and 48.9 µM | 0.181 | 11 µM and 12.4 µM | 3.72 | 20.1 µM and 17.6 µM | 0.685 | 7.3 µM and 7.53 µM | 2.33 | 32.6 µM and 12.4 µM | 25.7 | –
2 | Nc1[nH]c(=S)nc2nc3c(c(-c4ccccc4)c12)CCCC3 | > 100 | > 100 µM | – | > 100 µM | – | > 100 µM | – | > 100 µM | – | > 100 µM | – | > 100 µM | – | – | > 100 | > 100
3 | CCCCCCCCCCCCCC1=C(O)C(=O)C(CC2=C(O)C(=O)C(CCCCCCCCCCCCC)=C(O)C2=O)=C(O)C1=O | > 100 | > 100 µM | – | – | – | > 100 µM | – | – | – | > 100 µM | – | > 100 µM | – | > 100 µM | > 100 | > 100
4 | CN(C)CCNC(=O)c1cc(Cl)cc2cc3ccccc3nc12 | – | 1.97 µM | – | 8.29 µM | – | 1.98 µM | – | – | – | 10.1 µM | – | 4.53 µM | – | – | – | –
5 | Cc1[nH]c(=O)[nH]c(=O)c1/C=C/C(=O)NC(CO)CS(=O)CS(C)=O (stereo not drawn) | – | 483 µM | – | 183 µM | – | 56.3 µM | – | 66.5 µM | – | > 92.1 µM | – | 35.2 µM | – | 44 µM | – | –
6 | CCOC(=O)CCC(C(=O)OCC)n1nc2ccc(Nc3c(C)[n+]([O-])c4cc(F)c(OCC)cc4[n+]3[O-])cc2n1 (stereo not drawn) | > 100 | > 100 µM | – | > 100 µM | – | > 100 µM | – | > 100 µM | – | > 100 µM | – | 37.6 µM | – | 87.8 µM | > 100 | > 100
7 | COc1cc(/C=C2\N=C(c3ccccc3)N(c3ccc(C(=O)c4ccccc4)cc3N3C(=O)/C(=C/c4ccc(O)c(OC)c4)N=C3c3ccccc3)C2=O)ccc1O | > 100 | 95.5 µM | – | 94.3 µM | – | 30.8 µM | – | 15.3 µM | – | 22.4 µM | – | 74 µM | – | > 100 µM | 40 | 51.9
8 | CCCCCCCCCCCCCCCCCCNc1ccn(C2OC(CO)C(OP(=O)(O)OCC(O)COP(=O)(O)OCC3OC(n4cc(F)c(NCCCCCCCCCCCCCCCCCC)nc4=O)CC3O)C2O)c(=O)n1 (stereo not drawn) | > 50 | > 50 µM | – | > 50 µM | – | > 50 µM | – | – | – | > 50 µM | – | > 50 µM | – | > 50 µM | > 50 | > 50
9 | CCOC(=O)CNC(=O)C(Cc1ccccc1)NC(=O)C(C)(C)NC(=O)OCc1ccccc1 (stereo not drawn) (Cbz-[Aib]-[ξF]-Gly-OEt) | – | > 100 µM | – | > 100 µM | – | 40.9 µM | – | > 100 µM | – | – | – | > 100 µM | – | > 100 µM | > 100 | > 100
10 | CCCCN1C(=O)c2c(Br)sc(Br)c2C1=O | > 100 | > 100 µM | – | > 100 µM | – | > 100 µM | – | 70.6 µM | – | 87.5 µM | – | > 100 µM | – | – | > 100 | > 100
11 | CC(C)(C)c1ccc2c(c1)C#Cc1cc(C(C)(C)C)ccc1OCCCO2 | > 100 | > 100 µM | – | > 100 µM | – | > 100 µM | – | > 100 µM | – | > 100 µM | – | > 100 µM | – | – | > 100 | > 100
12 | OCC(O)CNc1ncnc2ccccc12 (stereo not drawn) | > 100 | > 100 µM | – | > 100 µM | – | > 100 µM | – | > 100 µM | – | > 100 µM | – | > 100 µM | – | > 100 µM | > 100 | > 100
13 | COC(=O)C1=C(C)N2CCSC2(C)C(C(=O)OC)C1c1cccc(Cl)c1 (stereo not drawn) | – | – | – | 81.7 µM | – | 32.6 µM | – | 45.6 µM | – | 62.3 µM | – | 43.7 µM | – | 53.2 µM | – | > 100
14 | O=C(CSCC(=O)N/N=C/c1ccccc1)N/N=C\c1ccccc1 | 18.9 | > 100 µM | – | > 100 µM | – | > 100 µM | – | > 100 µM | – | > 100 µM | – | > 100 µM | – | > 100 µM | – | > 100
15 | N#CC1=C2SCCN2C(=O)C(C#N)C12CCCCC2 (stereo not drawn) | > 100 | > 100 µM | – | > 100 µM | – | > 100 µM | – | > 100 µM | – | > 100 µM | – | > 100 µM | – | > 100 µM | > 100 | > 100
16 | C=C1C(=O)O[C@@H]2/C=C(\C)CC/C=C(\C)CC[C@@]12O | 7.81 | 25.8 µM | – | 6.43 µM | – | 23.6 µM | – | 6.15 µM | – | 25 µM | – | 13.8 µM | – | 3.63 µM | 6.42 | 3.42
17 | Cc1cc2c(c(O)c1-c1c(C)cc(O)c3c1C(=O)C=CC3=O)C(=O)C=CC2=O | > 25.5 | 7.86 µM | – | 2.29 µM | – | 4.98 µM | – | 0.375 µM | – | 32.9 µM | – | – | – | – | 4.03 | 3.12
18 | O=C(Oc1c(Cl)cc(C2(c3cc(Cl)c(OC(=O)c4ccccc4)c(Cl)c3)CCCCC2)cc1Cl)c1ccccc1 | 27.9 | 27.4 µM | – | 33.3 µM | – | 22.5 µM | – | 20.7 µM | – | 23.9 µM | – | 27.2 µM | – | 21.8 µM | 25.6 | 30.4
19 | S=c1c2[nH]cnc2ncn1CCSC1=NC=NC2=NC=NC21 (stereo not drawn) | > 100 | > 100 µM | – | > 100 µM | – | > 100 µM | – | > 100 µM | – | > 100 µM | – | > 100 µM | – | > 100 µM | > 100 | > 100
20 | CNC1Cc2c[nH]c3cccc(c23)C12C=C(C)C(=O)O2 (stereo not drawn) | > 100 | > 100 µM | – | > 100 µM | – | > 100 µM | – | > 100 µM | – | > 100 µM | – | > 100 µM | – | > 100 µM | > 100 | > 100
